According to the supplement of paper PMC10307832:

How the values were obtained:
Test in all cases: relative viability (nuclei count vs DMSO), 5 days (fraction); higher = more cells survive
RERF-LC-KJ = test system: RERF-LC-KJ
Procedure, shortened: (§1)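 Relative viability equals treated-well nuclei counts divided by vehicle-well nuclei counts. Counts came from 4× images of lung cancer cell lines grown in 1536-well plates for 5 days after pin-tool dosing on the day after seeding. Dosing used one drug alone or a fixed anchor-drug dose plus five library-drug doses (not always all listed) in √10 steps, and values are medians of duplicate plates.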

SK-MES-1 = test system: SK-MES-1
Procedure, shortened: as §1

EPLC-272H = test system: EPLC-272H
Procedure, shortened: as §1

HCC-78 = test system: HCC-78
Procedure, shortened: as §1

LCLC-97TM1 = test system: LCLC-97TM1
Procedure, shortened: as §1

NCI-H1650 = test system: NCI-H1650
Procedure, shortened: as §1

LOU-NH91 = test system: LOU-NH91
Procedure, shortened: as §1

SW 900 = test system: SW 900
Procedure, shortened: as §1

NCI-H1734 = test system: NCI-H1734
Procedure, shortened: as §1

NCI-H522 = test system: NCI-H522
Procedure, shortened: as §1

NCI-H2126 = test system: NCI-H2126
Procedure, shortened: as §1

EKVX = test system: EKVX
Procedure, shortened: as §1

BEN = test system: BEN
Procedure, shortened: as §1

HCC-827 = test system: HCC-827
Procedure, shortened: as §1

LK-2 = test system: LK-2
Procedure, shortened: as §1

NCI-H1944 = test system: NCI-H1944
Procedure, shortened: as §1

NCI-H727 = test system: NCI-H727
Procedure, shortened: as §1

EMC-BAC-2 = test system: EMC-BAC-2
Procedure, shortened: as §1

NCI-H358 = test system: NCI-H358
Procedure, shortened: as §1

SW 1573 = test system: SW 1573
Procedure, shortened: as §1

NCI-H2087 = test system: NCI-H2087
Procedure, shortened: as §1

LU99A = test system: LU99A
Procedure, shortened: as §1

COR-L 105 = test system: COR-L 105
Procedure, shortened: as §1

CCCCCCCCCCCC1=C(O)C(=O)C=C(O)C1=O [Embelin] + Cc1cc(Nc2cc(N3CCN(C)CC3)nc(Sc3ccc(NC(=O)C4CC4)cc3)n2)n[nH]1 [Tozasertib] (partner 0.1 µM)
relative viability (RERF-LC-KJ; first compound 0.08 µM): 0.567
relative viability (RERF-LC-KJ; first compound 0.8 µM): 0.532
relative viability (RERF-LC-KJ; first compound 2.53 µM): 0.564
relative viability (RERF-LC-KJ; first compound 8 µM): 0.368
relative viability (SK-MES-1; first compound 0.08 µM): 0.959
relative viability (SK-MES-1; first compound 0.8 µM): 0.989
relative viability (SK-MES-1; first compound 2.53 µM): 0.998
relative viability (SK-MES-1; first compound 8 µM): 0.621
relative viability (EPLC-272H; first compound 0.08 µM): 0.213
relative viability (EPLC-272H; first compound 0.8 µM): 0.182
relative viability (EPLC-272H; first compound 2.53 µM): 0.277
relative viability (EPLC-272H; first compound 8 µM): 0.22
relative viability (HCC-78; first compound 0.08 µM): 0.519
relative viability (HCC-78; first compound 0.8 µM): 0.511
relative viability (HCC-78; first compound 2.53 µM): 0.697
relative viability (HCC-78; first compound 8 µM): 0.437
relative viability (LCLC-97TM1; first compound 0.08 µM): 0.186
relative viability (LCLC-97TM1; first compound 0.8 µM): 0.239
relative viability (LCLC-97TM1; first compound 2.53 µM): 0.265
relative viability (LCLC-97TM1; first compound 8 µM): 0.218
relative viability (NCI-H1650; first compound 0.08 µM): 0.396
relative viability (NCI-H1650; first compound 0.8 µM): 0.452
relative viability (NCI-H1650; first compound 2.53 µM): 0.399
relative viability (NCI-H1650; first compound 8 µM): 0.462
relative viability (LOU-NH91; first compound 0.08 µM): 0.751
relative viability (LOU-NH91; first compound 0.8 µM): 0.827
relative viability (LOU-NH91; first compound 2.53 µM): 0.749
relative viability (LOU-NH91; first compound 8 µM): 0.808
relative viability (SW 900; first compound 0.08 µM): 0.438
relative viability (SW 900; first compound 0.8 µM): 0.672
relative viability (SW 900; first compound 2.53 µM): 0.511
relative viability (SW 900; first compound 8 µM): 0.718
relative viability (NCI-H1734; first compound 0.08 µM): 0.26
relative viability (NCI-H1734; first compound 0.8 µM): 0.27
relative viability (NCI-H1734; first compound 2.53 µM): 0.292
relative viability (NCI-H1734; first compound 8 µM): 0.262
relative viability (NCI-H522; first compound 0.08 µM): 0.617
relative viability (NCI-H522; first compound 0.8 µM): 0.577
relative viability (NCI-H522; first compound 2.53 µM): 0.513
relative viability (NCI-H522; first compound 8 µM): 0.532
relative viability (NCI-H2126; first compound 0.08 µM): 0.809
relative viability (NCI-H2126; first compound 0.8 µM): 0.907
relative viability (NCI-H2126; first compound 2.53 µM): 0.919
relative viability (NCI-H2126; first compound 8 µM): 0.878
relative viability (EKVX; first compound 0.08 µM): 0.387
relative viability (EKVX; first compound 0.8 µM): 0.381
relative viability (EKVX; first compound 2.53 µM): 0.412
relative viability (EKVX; first compound 8 µM): 0.417
relative viability (BEN; first compound 0.08 µM): 0.518
relative viability (BEN; first compound 0.8 µM): 0.591
relative viability (BEN; first compound 2.53 µM): 0.542
relative viability (BEN; first compound 8 µM): 0.512
relative viability (HCC-827; first compound 0.08 µM): 0.428
relative viability (HCC-827; first compound 0.8 µM): 0.447
relative viability (HCC-827; first compound 2.53 µM): 0.419
relative viability (HCC-827; first compound 8 µM): 0.424
relative viability (LK-2; first compound 0.08 µM): 0.161
relative viability (LK-2; first compound 0.8 µM): 0.172
relative viability (LK-2; first compound 2.53 µM): 0.147
relative viability (LK-2; first compound 8 µM): 0.177
relative viability (NCI-H1944; first compound 0.08 µM): 0.262
relative viability (NCI-H1944; first compound 0.8 µM): 0.261
relative viability (NCI-H1944; first compound 2.53 µM): 0.262
relative viability (NCI-H1944; first compound 8 µM): 0.276
relative viability (NCI-H727; first compound 0.08 µM): 0.552
relative viability (NCI-H727; first compound 0.8 µM): 0.565
relative viability (NCI-H727; first compound 2.53 µM): 0.634
relative viability (NCI-H727; first compound 8 µM): 0.675
relative viability (EMC-BAC-2; first compound 0.08 µM): 0.27
relative viability (EMC-BAC-2; first compound 0.8 µM): 0.318
relative viability (EMC-BAC-2; first compound 2.53 µM): 0.269
relative viability (EMC-BAC-2; first compound 8 µM): 0.267
relative viability (NCI-H358; first compound 0.08 µM): 0.116
relative viability (NCI-H358; first compound 0.8 µM): 0.0994
relative viability (NCI-H358; first compound 2.53 µM): 0.108
relative viability (NCI-H358; first compound 8 µM): 0.106
relative viability (SW 1573; first compound 0.08 µM): 0.18
relative viability (SW 1573; first compound 0.8 µM): 0.25
relative viability (SW 1573; first compound 2.53 µM): 0.167
relative viability (SW 1573; first compound 8 µM): 0.187
relative viability (NCI-H2087; first compound 0.08 µM): 0.28
relative viability (NCI-H2087; first compound 0.8 µM): 0.308
relative viability (NCI-H2087; first compound 2.53 µM): 0.222
relative viability (NCI-H2087; first compound 8 µM): 0.217
relative viability (LU99A; first compound 0.08 µM): 0.331
relative viability (LU99A; first compound 0.8 µM): 0.261
relative viability (LU99A; first compound 2.53 µM): 0.277
relative viability (LU99A; first compound 8 µM): 0.264
relative viability (COR-L 105; first compound 0.08 µM): 0.363
relative viability (COR-L 105; first compound 0.8 µM): 0.386
relative viability (COR-L 105; first compound 2.53 µM): 0.367
relative viability (COR-L 105; first compound 8 µM): 0.35
